Results reported in paper PMC12207908, “The broad‐spectrum antimicrobial peptide BMAP‐27B potentiates carbapenems against NDM‐producing pathogens in food animals” (mLife, 2025).
Converted amounts (≈) assume the structure as drawn.

How the values were obtained:
CRKP1 = assay: MIC, broth microdilution; type: cell-based; conditions: Klebsiella pneumoniae, MHB, 1 × 10^6 CFU/ml, 16–18 h, 37°C, independent triplicates
Description: (§1) The MIC of BMAP‐27B and other antibiotics was determined using the broth microdilution method, following the guidelines established by the Clinical and Laboratory Standards Institute (CLSI). Briefly, the bacterial cultures were grown to the logarithmic growth phase and subsequently diluted in Mueller–Hinton broth (MHB) to achieve a final concentration of 1 × 10^6 CFU/ml. BMAP‐27B and the other antibiotics were prepared in twofold serial dilutions in MHB and mixed with an equal volume of bacterial suspension in 96‐well polypropylene microtiter plates.

CRKP2 [1] = assay: MIC, broth microdilution; type: cell-based; conditions: Klebsiella pneumoniae, MHB, 1 × 10^6 CFU/ml, 16–18 h, 37°C, independent triplicates
Description: as §1

CRCB3 = assay: MIC, broth microdilution; type: cell-based; conditions: Citrobacter, MHB, 1 × 10^6 CFU/ml, 16–18 h, 37°C, independent triplicates
Description: as §1

CRCB1 = assay: MIC, broth microdilution; type: cell-based; conditions: Citrobacter, MHB, 1 × 10^6 CFU/ml, 16–18 h, 37°C, independent triplicates
Description: as §1

PRCB1 = assay: MIC, broth microdilution; type: cell-based; conditions: Citrobacter, MHB, 1 × 10^6 CFU/ml, 16–18 h, 37°C, independent triplicates
Description: as §1

P. aeruginosa UCBPP-PA01 = assay: MIC, broth microdilution; type: cell-based; conditions: Pseudomonas aeruginosa, UCBPPPA01, MHB, 1 × 10^6 CFU/ml, 16–18 h, 37°C, independent triplicates
Description: as §1

CREC5 = assay: MIC, broth microdilution; type: cell-based; conditions: Escherichia coli, MHB, 1 × 10^6 CFU/ml, 16–18 h, 37°C, independent triplicates
Description: as §1

S. aureus ATCC = assay: MIC, broth microdilution; type: cell-based; conditions: Staphylococcus aureus, MHB, 1 × 10^6 CFU/ml, 16–18 h, 37°C, independent triplicates
Description: as §1

CRKP6 = assay: MIC, broth microdilution; type: cell-based; conditions: Klebsiella pneumoniae, MHB, 1 × 10^6 CFU/ml, 16–18 h, 37°C, independent triplicates
Description: as §1

PREC3 = assay: MIC, broth microdilution; type: cell-based; conditions: Escherichia coli, MHB, 1 × 10^6 CFU/ml, 16–18 h, 37°C, independent triplicates
Description: as §1

CRKP4 = assay: MIC, broth microdilution; type: cell-based; conditions: Klebsiella pneumoniae, MHB, 1 × 10^6 CFU/ml, 16–18 h, 37°C, independent triplicates
Description: as §1

CREC3 = assay: MIC, broth microdilution; type: cell-based; conditions: Escherichia coli, MHB, 1 × 10^6 CFU/ml, 16–18 h, 37°C, independent triplicates
Description: as §1

CREC7 = assay: MIC, broth microdilution; type: cell-based; conditions: Escherichia coli, MHB, 1 × 10^6 CFU/ml, 16–18 h, 37°C, independent triplicates
Description: as §1

CREC4 = assay: MIC, broth microdilution; type: cell-based; conditions: Escherichia coli, MHB, 1 × 10^6 CFU/ml, 16–18 h, 37°C, independent triplicates
Description: as §1

CRKP3 = assay: MIC, broth microdilution; type: cell-based; conditions: Klebsiella pneumoniae, MHB, 1 × 10^6 CFU/ml, 16–18 h, 37°C, independent triplicates
Description: as §1

CRKP5 = assay: MIC, broth microdilution; type: cell-based; conditions: Klebsiella pneumoniae, MHB, 1 × 10^6 CFU/ml, 16–18 h, 37°C, independent triplicates
Description: as §1

[2] = system: En. faecium (Clinical; MDR; pig, faeces), lower row; assay: MIC, broth microdilution; type: cell-based; conditions: Enterococcus faecium, En. faecium clinical MDR isolate, MHB, 16–18 h, 37°C, independent triplicates
Description: as §1

CREC1 = assay: MIC, broth microdilution; type: cell-based; conditions: Escherichia coli, MHB, 1 × 10^6 CFU/ml, 16–18 h, 37°C, independent triplicates
Description: as §1

P. aeruginosa UCBPP-PA14 = assay: MIC, broth microdilution; type: cell-based; conditions: Pseudomonas aeruginosa, MHB, 1 × 10^6 CFU/ml, 16–18 h, 37°C, independent triplicates
Description: as §1

CREC2 = assay: MIC, broth microdilution; type: cell-based; conditions: Escherichia coli, MHB, 1 × 10^6 CFU/ml, 16–18 h, 37°C, independent triplicates
Description: as §1

CRCB2 = assay: MIC, broth microdilution; type: cell-based; conditions: Citrobacter, MHB, 1 × 10^6 CFU/ml, 16–18 h, 37°C, independent triplicates
Description: as §1

[3] = system: En. faecium (Clinical; MDR; pig, faeces), upper row; assay: MIC, broth microdilution; type: cell-based; conditions: Enterococcus faecium, En. faecium clinical MDR isolate, MHB, 16–18 h, 37°C, independent triplicates
Description: as §1

CRAB2 = assay: MIC, broth microdilution; type: cell-based; conditions: Acinetobacter baumannii, MHB, 1 × 10^6 CFU/ml, 16–18 h, 37°C, independent triplicates
Description: as §1

PREC2 = assay: MIC, broth microdilution; type: cell-based; conditions: Escherichia coli, MHB, 1 × 10^6 CFU/ml, 16–18 h, 37°C, independent triplicates
Description: as §1

CRAB1 = assay: MIC, broth microdilution; type: cell-based; conditions: Acinetobacter baumannii, MHB, 1 × 10^6 CFU/ml, 16–18 h, 37°C, independent triplicates
Description: as §1

PREC1 = assay: MIC, broth microdilution; type: cell-based; conditions: Escherichia coli, MHB, 1 × 10^6 CFU/ml, 16–18 h, 37°C, independent triplicates
Description: as §1

CREC6 = assay: MIC, broth microdilution; type: cell-based; conditions: Escherichia coli, MHB, 1 × 10^6 CFU/ml, 16–18 h, 37°C, independent triplicates
Description: as §1

Salmonella SL1344 = assay: MIC, broth microdilution; type: cell-based; conditions: MHB, 1 × 10^6 CFU/ml, 16–18 h, 37°C, independent triplicates
Description: as §1

CRKP2 [4] = assay: Mouse peritonitis model induced by CRKP2; type: in vivo, BALB/c mice; conditions: 1.0 × 10^8 CFU CRKP2 i.p.; treatment at 1 and 6 h; BMAP‐27B 3, 6 or 9 mg/kg, MEM 10 mg/kg, combination 3 + 10 mg/kg; tissues 24 h after infection
Description: Male BALB/c mice were used in this study, with six mice per group. The mice were infected via an intraperitoneal injection with a suspension of 1.0 × 10^8 CFU of CRKP2. At 1 and 6 h postinfection, the mice were treated with PBS, BMAP‐27B at doses of 3, 6, or 9 mg/kg, MEM at 10 mg/kg alone, or a combination of BMAP‐27B (3 mg/kg) and MEM (10 mg/kg). After 24 h of bacterial challenge, the surviving mice were euthanized by cervical dislocation. The kidneys, livers, spleens, and lungs of each mouse were harvested within […] postinfection. A portion of these organs was taken for histologic analysis using H&E staining, while the remaining tissue samples were weighed, homogenized in sterile normal saline, and serially diluted in saline. A volume of 100 µl of the homogenate dilutions was uniformly plated onto agar plates containing MEM (8 μg/ml). After overnight incubation at 37°C, colonies were counted and the results were expressed as CFU/g.

MIC (CRKP1) [µg/mL]	MIC (CRKP2 [1]) [µg/mL]	MIC (CRCB3) [µg/mL]	MIC (CRCB1) [µg/mL]	MIC (PRCB1) [µg/mL]	MIC (P. aeruginosa UCBPP-PA01) [µg/mL]	MIC (CREC5) [µg/mL]	MIC (S. aureus ATCC) [µg/mL]	MIC (PREC3) [µg/mL]	MIC (CREC3) [µg/mL]	MIC (CREC7) [µg/mL]	MIC (CREC4) [µg/mL]	MIC (CREC1) [µg/mL]	MIC (CREC2) [µg/mL]	MIC [3] [µg/mL]	MIC (CRAB2) [µg/mL]	MIC (PREC2) [µg/mL]	MIC (CRAB1) [µg/mL]	MIC (PREC1) [µg/mL]	MIC (CREC6) [µg/mL]	SMILES	further results
> 32	> 32	> 32	> 32	> 32	> 32	> 32	4 (≈ 11.4 µM)	> 32	> 32	> 32	> 32	> 32	> 32	32 (≈ 91.6 µM)	> 32	> 32	> 32	> 32	> 32	CC1(C)S[C@@H]2[C@H](NC(=O)[C@H](N)c3ccccc3)C(=O)N2[C@H]1C(=O)O [AMP, ampicillin]	MIC (CRKP6): > 32 µg/mL; MIC (CRKP4): > 32 µg/mL; MIC (CRKP3): > 32 µg/mL; MIC (CRKP5): > 32 µg/mL; MIC [2]: > 32 µg/mL; MIC (P. aeruginosa UCBPP-PA14): > 32 µg/mL; MIC (CRCB2): > 32 µg/mL; MIC (Salmonella SL1344): 8 µg/mL (≈ 22.9 µM)
> 32	> 32	32 (≈ 83.4 µM)	32 (≈ 83.4 µM)	< 1	< 1	32 (≈ 83.4 µM)	< 1	< 1	32 (≈ 83.4 µM)	32 (≈ 83.4 µM)	> 32	> 32	16 (≈ 41.7 µM)	8 (≈ 20.9 µM)	> 32	< 1	> 32	< 1	32 (≈ 83.4 µM)	C[C@@H](O)[C@H]1C(=O)N2C(C(=O)O)=C(S[C@@H]3CN[C@H](C(=O)N(C)C)C3)[C@H](C)[C@H]12 [MEM, meropenem]	bacterial titers in the liver, spleen, lung, and kidneys compared to the infection group (CRKP2 [4]): only slightly lower; MIC (CRKP6): > 32 µg/mL; MIC (CRKP4): 32 µg/mL (≈ 83.4 µM); MIC (CRKP3): > 32 µg/mL; MIC (CRKP5): 32 µg/mL (≈ 83.4 µM); MIC [2]: 16 µg/mL (≈ 41.7 µM); MIC (P. aeruginosa UCBPP-PA14): 2 µg/mL (≈ 5.22 µM); MIC (CRCB2): 32 µg/mL (≈ 83.4 µM); MIC (Salmonella SL1344): < 1 µg/mL
32 (≈ 107 µM)	32 (≈ 107 µM)	8 (≈ 26.7 µM)	> 32	< 1	< 1	32 (≈ 107 µM)	< 1	< 1	32 (≈ 107 µM)	32 (≈ 107 µM)	> 32	> 32	> 32	> 32	> 32	< 1	> 32	< 1	32 (≈ 107 µM)	C[C@@H](O)[C@H]1C(=O)N2C(C(=O)O)=C(SCCN=CN)C[C@H]12 [IMP, imipenem]	MIC (CRKP6): 4 µg/mL (≈ 13.4 µM); MIC (CRKP4): 16 µg/mL (≈ 53.4 µM); MIC (CRKP3): > 32 µg/mL; MIC (CRKP5): 4 µg/mL (≈ 13.4 µM); MIC [2]: > 32 µg/mL; MIC (P. aeruginosa UCBPP-PA14): 4 µg/mL (≈ 13.4 µM); MIC (CRCB2): 32 µg/mL (≈ 107 µM); MIC (Salmonella SL1344): < 1 µg/mL
		8 (≈ 13.7 µM)	4 (≈ 6.83 µM)		2 (≈ 3.42 µM)		8 (≈ 13.7 µM)	2 (≈ 3.42 µM)	2 (≈ 3.42 µM)	2 (≈ 3.42 µM)	4 (≈ 6.83 µM)	2 (≈ 3.42 µM)	4 (≈ 6.83 µM)	16 (≈ 27.3 µM)	> 32	8 (≈ 13.7 µM)	> 32	2 (≈ 3.42 µM)	16 (≈ 27.3 µM)	NCC[C@H](O)C(=O)N[C@@H]1C[C@H](N)[C@@H](O[C@H]2O[C@H](CN)[C@@H](O)[C@H](O)[C@H]2O)[C@H](O)[C@H]1O[C@H]1O[C@H](CO)[C@@H](O)[C@H](N)[C@H]1O [AMK, amikacin]	
